Results as given in EPA's ToxRefDB 2.

Legend:
rat [1] = conditions: Subchronic dermal toxicity, fischer, Topical, dose end: 13 week, group: systemic
mouse [2] = conditions: Subchronic oral toxicity in rodents, b6c3f1, Feed, dose end: 14 week, group: systemic, systemic / clinical chemistry / bilirubin / total bilirubin + systemic / clinical chemistry / cholesterol / cholesterol + systemic / …
rat [3] = conditions: Combined chronic toxicity/carcinogenicity, wistar, Oral, Feed, dose end: 24 month, group: systemic
dog [4] = conditions: Chronic toxicity; beagle; Oral; Feed; dose end: 52 week; group: systemic; systemic / hematology / erythrocyte (rbc) count differential / erythrocyte (rbc) + systemic / hematology / heinz body / heinz body + …
rat [5] = conditions: Multigenerational reproductive toxicity study, sprague dawley, Oral, Feed, dose end: 2 generation
mouse [6] = conditions: Carcinogenicity; b6c3f1; Oral; Feed; dose end: 2 year; group: systemic; systemic / organ weight / kidney / nos + systemic / pathology microscopic / kidney / vacuolization + systemic / organ weight / kidney / …
rabbit = conditions: Prenatal developmental toxicity study, other, Oral, Gavage/Intubation, dose end: 18 GD
dog [7] = conditions: Subchronic oral toxicity in nonrodent, beagle, Feed, dose end: 90 day, group: systemic
rat [8] = conditions: Subchronic oral toxicity in rodents, wistar, Feed, dose end: 90 day, group: systemic
rat [9] = conditions: Combined chronic toxicity/carcinogenicity; sprague dawley; Oral; Feed; dose end: 104 week; group: systemic; systemic / pathology microscopic / adrenal gland / hypertrophy + systemic / pathology microscopic / skeletal muscle / malformation + …
rat [10] = conditions: Multigenerational reproductive toxicity study, sprague dawley, Oral, Feed, dose end: 2 generation; remark: listed apart in the source
rat [11] = conditions: Prenatal developmental toxicity study, sprague dawley, Oral, Gavage/Intubation, dose end: 5 GD, group: developmental
rat [12] = conditions: Combined chronic toxicity/carcinogenicity; fischer; Oral; Feed; dose end: 104 week; group: systemic; systemic / organ weight / skeletal muscle / absolute + systemic / organ weight / skeletal muscle / relative to body weight + systemic / …
rat [13] = conditions: Prenatal developmental toxicity study; wistar; Oral; Feed; dose end: 15 GD; group: maternal; systemic / in life observation / body weight / body weight gain + systemic / in life observation / food consumption / food consumption
mouse [14] = conditions: Subchronic oral toxicity in rodents, b6c3f1, Feed, dose end: 13 week, group: systemic
rat [15] = conditions: Combined chronic toxicity/carcinogenicity, fischer, Oral, Feed, dose end: 2 year, group: systemic
rat [16] = conditions: Subchronic oral toxicity in rodents, fischer, Feed, dose end: 13 week, group: systemic
rat [17] = conditions: Prenatal developmental toxicity study, sprague dawley, Oral, Gavage/Intubation, dose end: 15 GD
rat [18] = conditions: Prenatal developmental toxicity study, sprague dawley, Oral, Gavage/Intubation, dose end: 15 GD; remark: listed apart in the source
mouse [19] = conditions: Combined chronic toxicity/carcinogenicity; b6c3f1; Oral; Feed; dose end: 2 year; group: systemic; systemic / in life observation / body weight / body weight
dog [20] = conditions: Chronic toxicity, beagle, Oral, [Not Specified], dose end: 52 week, group: systemic
mouse [21] = conditions: Carcinogenicity, cd1, Oral, Feed, dose end: 80 week, group: systemic
rat [22] = conditions: Subchronic oral toxicity in rodents, sprague dawley, Feed, dose end: 13 week, group: systemic, systemic / in life observation / body weight / body weight + systemic / in life observation / body weight / body weight gain + systemic / in…
[23] = systemic / pathology microscopic / skin / inflammation
[24] = systemic / pathology microscopic / skin / inflammation + systemic / in life observation / clinical signs / desquamation + systemic / in life…
[25] = systemic / clinical chemistry / lactic acid dehydrogenase (ldh) / lactic acid dehydrogenase (ldh)
[26] = group: offspring, systemic / in life observation / body weight / offspring (pup) weight
[27] = group: offspring, systemic / in life observation / body weight / offspring (pup) weight + developmental / offspring survival late / [other] / [other]
[28] = group: parental, systemic / clinical chemistry / alkaline phosphatase (alp/alk) / alkaline phosphatase (alp/alk) + systemic / clinical chemistry / creatinine…
[29] = group: developmental, developmental / developmental malformation / bone / unossified + systemic / in life observation / body weight / fetal weight
[30] = group: maternal, systemic / in life observation / body weight / body weight gain + systemic / in life observation / clinical signs / scybala + systemic / in …
[31] = systemic / hematology / heinz body / heinz body
[32] = systemic / hematology / heinz body / heinz body + systemic / clinical chemistry / alkaline phosphatase (alp/alk) / alkaline phosphatase (alp…
[33] = systemic / clinical chemistry / alanine aminotransferase (alt/sgpt) / alanine aminotransferase (alt/sgpt) + systemic / in life observation…
[34] = systemic / organ weight / liver / absolute + systemic / organ weight / liver / relative to body weight
[35] = group: parental, systemic / in life observation / body weight / body weight + systemic / in life observation / body weight / body weight gain + systemic / in…
[36] = developmental / developmental malformation / bone / ossification sites + developmental / developmental malformation / general / [other] + …
[37] = systemic / in life observation / body weight / body weight gain
[38] = systemic / in life observation / body weight / body weight gain + systemic / in life observation / mortality / mortality + systemic / in …
[39] = systemic / pathology microscopic / eye / retinopathy
[40] = systemic / pathology microscopic / thyroid gland / adenoma/carcinoma combined + systemic / pathology microscopic / thyroid gland / carcinoma…
[41] = group: developmental, developmental / developmental malformation / bone / ossification sites + developmental / developmental malformation / general / [other] + …
[42] = group: maternal, systemic / in life observation / body weight / body weight gain
[43] = group: maternal, systemic / in life observation / body weight / body weight gain + reproductive / reproductive performance / postimplantation loss / …
[44] = group: developmental, developmental / developmental malformation / diaphragm / diaphragmatic thinning
[45] = group: developmental, developmental / developmental malformation / diaphragm / diaphragmatic thinning + systemic / in life observation / body weight / fetal …
[46] = group: maternal, systemic / in life observation / body weight / body weight + systemic / in life observation / clinical signs / salivation + systemic / in …
[47] = systemic / clinical chemistry / alanine aminotransferase (alt/sgpt) / alanine aminotransferase (alt/sgpt) + systemic / clinical chemistry / …
[48] = systemic / organ weight / ovary / absolute + systemic / organ weight / uterus / absolute
[49] = systemic / in life observation / body weight / body weight + systemic / pathology microscopic / liver / hypertrophy
[50] = systemic / in life observation / body weight / body weight gain + systemic / organ weight / brain / absolute + systemic / pathology …

SMILES: CCCCCCCCCCSCCN.Cl [2-(Decylthio)ethanamine hydrochloride]
- LOAEL (rat [1]; [23]): 1 mg/kg/day
- NOAEL (rat [1]; [23]): < 1 mg/kg/day
- LEL (rat [1]; [24]): 1 mg/kg/day
- NEL (rat [1]; [24]): < 1 mg/kg/day

SMILES: CC1(C(=O)Nc2ccc(O)c(Cl)c2Cl)CCCCC1 [Fenhexamid]
- LEL (mouse [2]): 3280 mg/kg/day
- LOAEL (mouse [2]): 3280 mg/kg/day
- NEL (mouse [2]): 266 mg/kg/day
- NOAEL (mouse [2]): 266 mg/kg/day
- LEL (rat [3]; [25]): 28 mg/kg/day
- NEL (rat [3]; [25]): < 28 mg/kg/day
- NOAEL (rat [3]; systemic / clinical chemistry / lactic acid dehydrogenase (ldh) / lactic acid dehydrogenase (ldh) + systemic / pathology microscopic / …): 28 mg/kg/day
- LOAEL (rat [3]; systemic / pathology microscopic / intestine large / hyperplasia + systemic / pathology microscopic / spleen / hematopoietic cell …): 292 mg/kg/day
- LEL (dog [4]): 124 mg/kg/day
- LOAEL (dog [4]): 124 mg/kg/day
- NEL (dog [4]): 17.4 mg/kg/day
- NOAEL (dog [4]): 17.4 mg/kg/day
- LEL (rat [5]; [26]): 406 mg/kg/day
- LOAEL (rat [5]; [26]): 406 mg/kg/day
- NEL (rat [5]; [27]): 38.2 mg/kg/day
- NOAEL (rat [5]; [27]): 38.2 mg/kg/day
- LEL (rat [5]; [28]): 406 mg/kg/day
- LOAEL (rat [5]; [28]): 406 mg/kg/day
- NEL (rat [5]; [28]): 38.2 mg/kg/day
- NOAEL (rat [5]; [28]): 38.2 mg/kg/day
- LEL (mouse [6]): 807 mg/kg/day
- LOAEL (mouse [6]): 807 mg/kg/day
- NEL (mouse [6]): 247 mg/kg/day
- NOAEL (mouse [6]): 247 mg/kg/day
- LEL (rabbit; [29]): 1000 mg/kg/day
- LOAEL (rabbit; [29]): 1000 mg/kg/day
- NEL (rabbit; [29]): 300 mg/kg/day
- NOAEL (rabbit; [29]): 300 mg/kg/day
- LEL (rabbit; [30]): 300 mg/kg/day
- LOAEL (rabbit; [30]): 300 mg/kg/day
- NEL (rabbit; [30]): 100 mg/kg/day
- NOAEL (rabbit; [30]): 100 mg/kg/day
- LEL (dog [7]; [31]): 239 mg/kg/day
- LOAEL (dog [7]; [31]): 239 mg/kg/day
- NEL (dog [7]; [32]): 33.9 mg/kg/day
- NOAEL (dog [7]; [32]): 33.9 mg/kg/day
- LOAEL (rat [8]; [33]): 904 mg/kg/day
- NOAEL (rat [8]; [33]): 415 mg/kg/day
- LEL (rat [8]; [34]): 202 mg/kg/day
- NEL (rat [8]; [34]): < 202 mg/kg/day

SMILES: CN(C)C(=S)[S-].CN(C)C(=S)[S-].[Zn+2] [Ziram]
- LEL (rat [9]): 2.5 mg/kg/day
- LOAEL (rat [9]): 2.5 mg/kg/day
- NEL (rat [9]): < 2.5 mg/kg/day
- NOAEL (rat [9]): < 2.5 mg/kg/day
- LEL (rat [10]; [26]): 42.7 mg/kg/day
- LOAEL (rat [10]; [26]): 42.7 mg/kg/day
- NEL (rat [10]; [26]): 16.7 mg/kg/day
- NOAEL (rat [10]; [26]): 16.7 mg/kg/day
- LEL (rat [10]; [35]): 37.5 mg/kg/day
- LOAEL (rat [10]; [35]): 37.5 mg/kg/day
- NEL (rat [10]; [35]): 14.8 mg/kg/day
- NOAEL (rat [10]; [35]): 14.8 mg/kg/day
- LOAEL (rat [11]; [36]): > 100 mg/kg/day
- NEL (rat [11]; [36]): 25 mg/kg/day
- NOAEL (rat [11]; [36]): ≥ 100 mg/kg/day
- LEL (rat [11]; systemic / in life observation / body weight / fetal weight): 50 mg/kg/day
- LEL (rat [12]): 6.9 mg/kg/day
- LOAEL (rat [12]): 6.9 mg/kg/day
- NEL (rat [12]): 0.7 mg/kg/day
- NOAEL (rat [12]): 0.7 mg/kg/day
- LEL (rat [13]): 12.5 mg/kg/day
- LOAEL (rat [13]): > 25 mg/kg/day
- NEL (rat [13]): 6.25 mg/kg/day
- NOAEL (rat [13]): ≥ 25 mg/kg/day
- LEL (mouse [14]; [37]): 80 mg/kg/day
- NEL (mouse [14]; [37]): < 80 mg/kg/day
- LOAEL (mouse [14]; [38]): > 1590 mg/kg/day
- NOAEL (mouse [14]; [38]): ≥ 1590 mg/kg/day
- LEL (rat [15]; [39]): 13 mg/kg/day
- NEL (rat [15]; [39]): < 13 mg/kg/day
- LOAEL (rat [15]; [40]): > 22 mg/kg/day
- NOAEL (rat [15]; [40]): ≥ 22 mg/kg/day
- LEL (rat [16]; [37]): 31.3 mg/kg/day
- LOAEL (rat [16]; [38]): > 313 mg/kg/day
- NEL (rat [16]; [38]): 16.3 mg/kg/day
- NOAEL (rat [16]; [38]): ≥ 313 mg/kg/day
- LOAEL (rat [17]; [41]): > 100 mg/kg/day
- NEL (rat [17]; [41]): 12.5 mg/kg/day
- NOAEL (rat [17]; [41]): ≥ 100 mg/kg/day
- LEL (rat [17]; group: developmental, systemic / in life observation / body weight / fetal weight): 25 mg/kg/day
- LEL (rat [17]; [42]): 12.5 mg/kg/day
- NEL (rat [17]; [42]): < 12.5 mg/kg/day
- LOAEL (rat [17]; [43]): > 100 mg/kg/day
- NOAEL (rat [17]; [43]): ≥ 100 mg/kg/day
- LEL (rat [18]; [44]): 16 mg/kg/day
- LOAEL (rat [18]; [44]): 16 mg/kg/day
- NEL (rat [18]; [45]): 4 mg/kg/day
- NOAEL (rat [18]; [45]): 4 mg/kg/day
- LEL (rat [18]; [46]): 16 mg/kg/day
- LOAEL (rat [18]; [46]): 16 mg/kg/day
- NEL (rat [18]; [46]): 4 mg/kg/day
- NOAEL (rat [18]; [46]): 4 mg/kg/day
- LEL (mouse [19]): 122 mg/kg/day
- LOAEL (mouse [19]): 122 mg/kg/day
- NEL (mouse [19]): < 122 mg/kg/day
- NOAEL (mouse [19]): < 122 mg/kg/day
- LOAEL (dog [20]; [47]): 6.6 mg/kg/day
- NOAEL (dog [20]; [47]): 1.6 mg/kg/day
- LEL (dog [20]; [48]): 1.9 mg/kg/day
- NEL (dog [20]; [48]): < 1.9 mg/kg/day
- LEL (mouse [21]; [49]): 3 mg/kg/day
- NEL (mouse [21]; [49]): < 3 mg/kg/day
- LOAEL (mouse [21]; [50]): 27 mg/kg/day
- NOAEL (mouse [21]; [50]): 9 mg/kg/day
- LEL (rat [22]): 21.4 mg/kg/day
- LOAEL (rat [22]): 21.4 mg/kg/day
- NEL (rat [22]): 7.4 mg/kg/day
- NOAEL (rat [22]): 7.4 mg/kg/day
